Results from patent US12594268B2, “Methods of treating Fabry disease in patients having a mutation in the GLA gene” (Amicus Therapeutics, Inc., priority 2018, dated 2026).
Where a chain is given by its changes, count along the chain named.

Experiments:
Type in all cases: cell-based
[1] = target: T1, α-Gal A mutant form L189F (Homo sapiens, UniProt P06280, L189F); experiment: α-Gal A activity in lysates of transfected HEK-293 cells, L189F
T1 construct: expressed in transfected cells; host or cells: HEK-293
T1 sequence (P06280 32-429 L189F): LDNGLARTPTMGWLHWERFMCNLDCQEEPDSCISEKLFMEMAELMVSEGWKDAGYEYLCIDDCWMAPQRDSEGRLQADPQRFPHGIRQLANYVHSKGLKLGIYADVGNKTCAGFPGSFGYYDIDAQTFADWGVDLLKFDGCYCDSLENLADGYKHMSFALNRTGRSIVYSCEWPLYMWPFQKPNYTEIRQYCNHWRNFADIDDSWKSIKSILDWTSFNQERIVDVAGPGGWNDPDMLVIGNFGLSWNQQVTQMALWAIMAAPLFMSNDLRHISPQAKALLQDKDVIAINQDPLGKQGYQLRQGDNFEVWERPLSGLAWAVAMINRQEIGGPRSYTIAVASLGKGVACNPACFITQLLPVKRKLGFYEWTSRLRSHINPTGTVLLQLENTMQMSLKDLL
Protocol: (§1) Baseline and 10 μM migalastat α-Gal A activity: Differences in the α-Gal A activity between lysates incubated in the absence and presence of 10 μM migalastat were determined using a one-tailed, Mann Whitney U test; an increase at 10 μM migalastat with a p<0.05 was considered significant.
(§2) 10 μM migalastat α-Gal A activity (% WT)=(α-Gal A activity in mutant transfected cell lysates incubated with 10 μM migalastat÷α-Gal A activity in wild-type transfected cell lysates without migalastat)*100.
(§3) Absolute increase (% WT)=is the 10 μM migalastat α-Gal A activity (% WT) minus the baseline α-Gal A activity (% WT).
(§4) Relative increase is the 10 μM migalastat α-Gal A activity in mutant transfected cell lysates÷baseline α-Gal A activity in mutant transfected cell lysates incubated without migalastat.

[2] = target: T2, α-Gal A mutant form Y88S (Homo sapiens, UniProt P06280, Y88S); experiment: α-Gal A activity in lysates of transfected HEK-293 cells, Y88S; conditions: Y-88S
T2 construct: expressed in transfected cells; host or cells: HEK-293
T2 sequence (P06280 32-429 Y88S): T1 sequence (P06280 32-429 L189F) with Y57S, F158L
Protocol: as §1, §2, §3, §4

[3] = target: T3, α-Gal A mutant form Q107R (Homo sapiens, UniProt P06280, Q107R); experiment: α-Gal A activity in lysates of transfected HEK-293 cells, Q107R
T3 construct: expressed in transfected cells; host or cells: HEK-293
T3 sequence (P06280 32-429 Q107R): T1 sequence (P06280 32-429 L189F) with Q76R, F158L
Protocol: as §1, §2, §3, §4

[4] = target: T4, α-Gal A mutant form Q57R (Homo sapiens, UniProt P06280, Q57R); experiment: α-Gal A activity in lysates of transfected HEK-293 cells, Q57R
T4 construct: expressed in transfected cells; host or cells: HEK-293
T4 sequence (P06280 32-429 Q57R): T1 sequence (P06280 32-429 L189F) with Q26R, F158L
Protocol: as §1, §2, §3, §4

[5] = target: T5, α-Gal A mutant form D155E (Homo sapiens, UniProt P06280, D155E); experiment: α-Gal A activity in lysates of transfected HEK-293 cells, D155E
T5 construct: expressed in transfected cells; host or cells: HEK-293
T5 sequence (P06280 32-429 D155E): T1 sequence (P06280 32-429 L189F) with D124E, F158L
Protocol: as §1, §2, §3, §4

[6] = 10 μM migalastat minus baseline
[7] = 10 μM migalastat ÷ baseline activity
[8] = HEK-293 lysates, 10 μM migalastat, 5 days, mean ± SEM

OC[C@H]1NC[C@H](O)[C@@H](O)[C@H]1O [migalastat, (2R,3S,4R,5S)-2-(hydroxymethyl) piperdine-3,4,5-triol]
Absolute increase (% WT) [1, 6]: 15.3 % WT
Relative increase [1, 7]: 1.22
10 μM migalastat α-Gal A activity [1, 8]: 27388 ± 1605 nmol/mg/h
10 μM migalastat α-Gal A activity (% WT) [1, 8]: 84.6 ± 3.8 % WT
Absolute increase (% WT) [2, 6]: 10.3 % WT
Relative increase [2, 7]: 3.67
10 nM migalastat α-Gal A activity ([2]; HEK-293 lysates, 10 nM migalastat as printed, 5 days, mean ± SEM): 5542 ± 376 nmol/mg/h
10 μM migalastat α-Gal A activity (% WT) [2, 8]: 14.1 ± 1.3 % WT
Absolute increase (% WT) [3, 6]: 21.5 % WT
Relative increase [3, 7]: 1.27
10 μM migalastat α-Gal A activity [3, 8]: 31193 ± 2248 nmol/mg/h
10 μM migalastat α-Gal A activity (% WT) [3, 8]: 109.8 ± 8.4 % WT
Absolute increase (% WT) [4, 6]: 24.0 % WT
Relative increase [4, 7]: 1.30
10 μM migalastat α-Gal A activity [4, 8]: 26357 ± 916 nmol/mg/h
10 μM migalastat α-Gal A activity (% WT) [4, 8]: 105.0 ± 3.0 % WT
Absolute increase (% WT) [5, 6]: 14.5 % WT
Relative increase [5, 7]: 3.81
10 μM migalastat α-Gal A activity [5, 8]: 6619 ± 337 nmol/mg/h
10 μM migalastat α-Gal A activity (% WT) [5, 8]: 19.8 ± 1.0 % WT
